The results in this text go back to patent US11981661B2, “Heterocyclic compounds” (Hoffmann-La Roche Inc., priority 2020, dated 2024).

This assay deals with T1, MAGL (Homo sapiens, UniProt Q99685).
T1 sequence (Q99685 1-303): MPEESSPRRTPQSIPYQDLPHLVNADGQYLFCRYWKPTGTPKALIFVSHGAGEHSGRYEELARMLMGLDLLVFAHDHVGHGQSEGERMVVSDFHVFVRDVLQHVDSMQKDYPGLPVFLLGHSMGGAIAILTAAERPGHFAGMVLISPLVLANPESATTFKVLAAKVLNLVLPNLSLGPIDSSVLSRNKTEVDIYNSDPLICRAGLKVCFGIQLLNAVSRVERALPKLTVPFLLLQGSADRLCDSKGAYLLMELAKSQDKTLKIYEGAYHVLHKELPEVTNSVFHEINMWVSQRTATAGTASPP
In words: 2-AG assay (MAGL inhibitory activity, hydrolysis of 2-arachidonoylglycerol followed by mass spectrometry). The assay is classed as biochemical. To be noted: 50 pM MAGL, 8 μM 2-arachidonoylglycerol, 15 min preincubation, 30 min incubation at RT, concentration range 12.5 μM to 0.8 pM. The procedure, abridged:
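Activity derived from the arachidonic acid/d8-arachidonic acid MS intensity ratio after acetonitrile quench. Reaction: 8 μM 2-AG substrate with 50 pM MAGL, 30 min at RT, following 15 min RT compound preincubation; buffer 50 mM TRIS, 1 mM EDTA, 0.01% Tween; final compound range 12.5 μM to 0.8 pM.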
The compound `O=C1N[C@H](CCC(=O)N2CC3(CC(NS(=O)(=O)c4cccc(C(F)(F)F)c4)C3)C2)CO1` [Example 154, N-[2-[3-[(4R)-2-Oxooxazolidin-4-yl]propanoyl]-2-azaspiro[3.3]heptan-6-yl]-3-(trifluoromethyl) benzene-sulfonamide] yielded an IC50 of 95 nM. This lies in the double-digit nanomolar range. Then `O=C1N[C@H](CCC(=O)N2CC(NCc3ccc(C(F)(F)F)cc3)C2)CO1` [Example 155, (4R)-4-[3-Oxo-3-[3-[[4-(trifluoromethyl)phenyl]methyl-amino]azetidin-1-yl]propyl] oxazolidin-2-one], with 284 nM; and `O=C1N[C@H](CCC(=O)N2CC(NCc3cc(C(F)(F)F)ccc3F)C2)CO1` [Example 156, (4R)-4-[3-[3-[[2-Fluoro-5-(trifluoro-methyl)phenyl]methylamino]azetidin-1-yl]-3-oxo-propyl] oxazolidin-2-one], with 279 nM; and `CS(=O)(=O)c1cc(F)ccc1CC1CC2(C1)CN(C(=O)CC[C@@H]1COC(=O)N1)C2` [Example 157, (4R)-4-[3-[6-[(4-Fluoro-2-methylsulfonyl-phenyl)methyl]-2-azaspiro[3.3]heptan-2-yl]-3-oxo-propyl]oxazolidin-2-one], with 25 nM. Then `O=C1N[C@H](CCC(=O)N2CCC(CNS(=O)(=O)c3ccc(C(F)(F)F)cc3)CC2)CO1` [Example 158, N-[[1-[3-[(4R)-2-Oxooxazolidin-4-yl]propanoyl]-4-piperidyl]methyl]-4-(trifluoro-methyl)benzene-sulfonamide], with 582 nM; and `O=C1N[C@H](CCC(=O)N2CCC(CNS(=O)(=O)c3ccc(OC(F)(F)F)cc3)CC2)CO1` [Example 159, N-[[1-[3-[(4R)-2-Oxooxazolidin-4-yl]propanoyl]-4-piperidyl]methyl]-4-(trifluoro-methoxy)benzene-sulfonamide], with 434 nM; and `CC1(O)CN(c2ccc(C3CN(C(=O)CC[C@@H]4COC(=O)N4)C3)cn2)C1` [Example 160, (4R)-4-[3-[3-[6-(3-Hydroxy-3-methyl-azetidin-1-yl)-3-pyridyl]azetidin-1-yl]-3-oxo-propyl]oxazolidin-2-one], with 1330 nM. With `O=C1N[C@H](CCC(=O)N2CC(c3ccc(N4CC(C(F)(F)F)C4)nc3)C2)CO1` [Example 161, (4R)-4-[3-Oxo-3-[3-[6-[3-(trifluoro-methyl)azetidin-1-yl]-3-pyridyl]azetidin-1-yl]propyl]oxazolidin-2-one] the figure was 65 nM. Take `CN(Cc1ccc(C(F)(F)F)cc1F)C1CN(C(=O)CC[C@@H]2COC(=O)N2)C1` [Example 162, (4R)-4-[3-[3-[[2-Fluoro-4-(trifluoromethyl)phenyl]methyl-methyl-amino]azetidin-1-yl]-3-oxo-propyl] oxazolidin-2-one]: half-maximal inhibition (IC50) was put at 108 nM. This IC50 is about 1.7-fold higher than that of the compound before. With `O=C1N[C@H](CCC(=O)N2CC(c3ccc(C4CC5(CCC5)C4)nc3)C2)CO1` [Example 163, (4R)-4-[3-Oxo-3-[3-(6-spiro[3.3]heptan-2-yl-3-pyridyl)azetidin-1-yl]propyl] oxazolidin-2-one] the figure was 9 nM; with `O=C1N[C@H](CCC(=O)N2CC(c3cnc(C4CC5(CCC5)C4)cn3)C2)CO1` [Example 164, (4R)-4-[3-Oxo-3-[3-(5-spiro[3.3]heptan-2-ylpyrazin-2-yl)azetidin-1-yl]propyl] oxazolidin-2-one], 12 nM. With `CC(C)(C)Cc1nnc(C23CC(C4CN(C(=O)CC[C@@H]5COC(=O)N5)C4)(C2)C3)o1` [Example 165, (4R)-4-[3-[3-[3-[5-(2,2-Dimethyl-propyl)-1,3,4-oxadiazol-2-yl]-1-bicyclo[1.1.1]pentanyl]azetidin-1-yl]-3-oxo-propyl] oxazolidin-2-one] the figure was 24 nM; with `O=C1N[C@H](CCC(=O)N2CC(OCc3ccc(S(=O)(=O)C(F)(F)F)cc3)C2)CO1` [Example 166, (4R)-4-[3-Oxo-3-[3-[[4-(trifluoro-methylsulfonyl)phenyl]methoxy]azetidin-1-yl]propyl]oxazolidin-2-one], 48 nM; with `O=C1N[C@H](CCC(=O)N2CC(OCc3cccc(S(=O)(=O)C(F)(F)F)c3)C2)CO1` [Example 167, (4R)-4-[3-Oxo-3-[3-[[3-(trifluoro-methylsulfonyl)phenyl]methoxy]azetidin-1-yl]propyl]oxazolidin-2-one], 27 nM.

In the case of `O=C1N[C@H](CCC(=O)N2CC(c3noc(-c4ccc(C(F)(F)F)nc4)n3)C2)CO1` [Example 168, (4R)-4-[3-Oxo-3-[3-[5-[6-(trifluoromethyl)-3-pyridyl]-1,2,4-oxadiazol-3-yl]azetidin-1-yl]propyl]oxazolidin-2-one], half-maximal inhibition (IC50) required 2020 nM. This IC50 is about 75-fold higher than that of the compound before. Then `O=C1N[C@H](CCC(=O)N2CC(c3noc(C45CC(C(F)(F)F)(C4)C5)n3)C2)CO1` [Example 169, (4R)-4-[3-Oxo-3-[3-[5-[3-(trifluoromethyl)-1-bicyclo[1.1.1]pentanyl]-1,2,4-oxadiazol-3-yl]azetidin-1-yl]propyl] oxazolidin-2-one], with 854 nM; and `CC(C)(O)C1CN(c2ccc(C3CN(C(=O)CC[C@@H]4COC(=O)N4)C3)cn2)C1` [Example 170, (4R)-4-[3-[3-[6-[3-(1-Hydroxy-1-methyl-ethyl)azetidin-1-yl]-3-pyridyl]azetidin-1-yl]-3-oxo-propyl]oxazolidin-2-one], with 329 nM.

As to `O=C1N[C@H](CCC(=O)N2CC(c3ccc(C4(CO)CC4)cc3)C2)CO1` [Example 171, (4R)-4-[3-[3-[4-[1-(Hydroxy-methyl)cyclo-propyl]phenyl]azetidin-1-yl]-3-oxo-propyl] oxazolidin-2-one], inhibition was half-maximal at 21 nM (IC50). This IC50 is about 16-fold lower than that of the compound before.

In turn, `O=C1N[C@H](CCC(=O)N2CC(c3ccc(N4CC5(CCCO5)C4)nc3)C2)CO1` [Example 172, (4R)-4-[3-[3-[6-(5-Oxa-2-azaspiro[3.4]octan-2-yl)-3-pyridyl]azetidin-1-yl]-3-oxo-propyl]oxazolidin-2-one] yielded an IC50 of 827 nM. `O=C1N[C@H](CCC(=O)N2CC(c3ccc(N4CCC5(C4)CC5(F)F)nc3)C2)CO1` (stereo partly drawn) [Example 173, (4R)-4-[3-[3-[6-(2,2-Difluoro-5-azaspiro[2.4]heptan-5-yl)-3-pyridyl]azetidin-1-yl]-3-oxo-propyl]oxazolidin-2-one] came in with an IC50 of 45 nM. With `O=C1N[C@H](CCC(=O)N2CC(c3ccc(Oc4cnc(C(F)(F)F)cn4)cc3)C2)CO1` [Example 174, (4R)-4-[3-Oxo-3-[3-[4-[5-(trifluoromethyl)pyrazin-2-yl]oxyphenyl]azetidin-1-yl]propyl]oxazolidin-2-one] the figure was 20 nM. With `O=C1N[C@H](CCC(=O)N2CC(c3ccc(NCC4(C(F)(F)F)CC4)cn3)C2)CO1` [Example 175, (4R)-4-[3-Oxo-3-[3-[5-[[1-(trifluoromethyl)cyclopropyl]methylamino]-2-pyridyl]azetidin-1-yl]propyl]oxazolidin-2-one] the figure was 17 nM. Then `O=C1N[C@H](CCC(=O)N2CC(c3cnc(NCC4(C(F)(F)F)CC4)cn3)C2)CO1` [Example 176, (4R)-4-[3-Oxo-3-[3-[5-[[1-(trifluoromethyl)cyclopropyl]methylamino]pyrazin-2-yl]azetidin-1-yl]propyl] oxazolidin-2-one], with 12 nM.

The compound `O=C1N[C@H](CCC(=O)N2CC(c3ccc(-c4nc(C5CC5)n[nH]4)cc3)C2)CO1` [Example 177, (4R)-4-[3-[3-[4-(3-Cyclo-propyl-1H-1,2,4-triazol-5-yl)phenyl]azetidin-1-yl]-3-oxo-propyl]oxazolidin-2-one] had an IC50 of 353 nM. This IC50 lies about 29-fold higher than the previous one. Regarding `O=C1N[C@H](CCC(=O)N2CC(c3ccc(-c4nc(C5(C(F)(F)F)CC5)n[nH]4)cc3)C2)CO1` [Example 178, (4R)-4-[3-Oxo-3-[3-[4-[3-[1-(trifluoro-methyl)cyclo-propyl]-1H-1,2,4-triazol-5-yl]phenyl]azetidin-1-yl]propyl]oxazolidin-2-one], the IC50 worked out at 181 nM. Consider `CS(=O)(=O)c1cccc(CC2CC3(C2)CN(C(=O)CC[C@@H]2COC(=O)N2)C3)c1` [Example 179, (4R)-4-[3-[6-[(3-Methyl-sulfonylphenyl)methyl]-2-azaspiro[3.3]heptan-2-yl]-3-oxo-propyl]oxazolidin-2-one], for which 46 nM corresponded to half-maximal inhibition (IC50). Against the preceding compound, the IC50 is about 3.9-fold lower. Then `CS(=O)(=O)c1ccc(CC2CC3(C2)CN(C(=O)CC[C@@H]2COC(=O)N2)C3)cc1` [Example 180, (4R)-4-[3-[6-[(4-Methyl-sulfonylphenyl)methyl]-2-azaspiro[3.3]heptan-2-yl]-3-oxo-propyl]oxazolidin-2-one], with 93 nM; and `O=C1N[C@H](CCC(=O)N2CC3(CC(Cc4ccc(C(F)(F)F)nn4)C3)C2)CO1` [Example 181, (4R)-4-[3-Oxo-3-[6-[[6-(trifluoro-methyl)pyridazin-3-yl]methyl]-2-azaspiro[3.3]heptan-2-yl]propyl] oxazolidin-2-one], with 227 nM; and `O=C1N[C@H](CCC(=O)N2CC3(CC(Cc4cnc(C(F)(F)F)nc4)C3)C2)CO1` [Example 182, (4R)-4-[3-Oxo-3-[6-[[2-(trifluoro-methyl)pyrimidin-5-yl]methyl]-2-azaspiro[3.3]heptan-2-yl]propyl] oxazolidin-2-one], with 246 nM.

Take `O=C1N[C@H](CCC(=O)N2CC3(CC(Cc4ncc(C(F)(F)F)cn4)C3)C2)CO1` [Example 183, (4R)-4-[3-Oxo-3-[6-[[5-(trifluoro-methyl)pyrimidin-2-yl]methyl]-2-azaspiro[3.3]heptan-2-yl]propyl] oxazolidin-2-one]: half-maximal inhibition (IC50) required 84 nM.
